The target in assay [1] is T1, NLRP3 (Homo sapiens, UniProt Q96P20). In words: THP-1 cells pyroptosis assay (LPS + nigericin, resazurin read-out). It counts as cell-based. The arrangement: Seed THP-1 cells (25,000 cells/well) containing 1.0 μg/ml LPS; host or cells: THP-1 cells. In a few lines: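 THP-1 cells (25,000/well) primed with 1 μg/ml LPS in serum-free RPMI, treated 3 h with compound (8-point half-log series, 10 μM top, 0.1% DMSO), then 5 μM nigericin for 1 h at 37 °C. Viability read by 100 μM resazurin fluorescence after 1-2 h; IC50 from 4-parameter fit.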
T1 sequence (Q96P20 whole entry): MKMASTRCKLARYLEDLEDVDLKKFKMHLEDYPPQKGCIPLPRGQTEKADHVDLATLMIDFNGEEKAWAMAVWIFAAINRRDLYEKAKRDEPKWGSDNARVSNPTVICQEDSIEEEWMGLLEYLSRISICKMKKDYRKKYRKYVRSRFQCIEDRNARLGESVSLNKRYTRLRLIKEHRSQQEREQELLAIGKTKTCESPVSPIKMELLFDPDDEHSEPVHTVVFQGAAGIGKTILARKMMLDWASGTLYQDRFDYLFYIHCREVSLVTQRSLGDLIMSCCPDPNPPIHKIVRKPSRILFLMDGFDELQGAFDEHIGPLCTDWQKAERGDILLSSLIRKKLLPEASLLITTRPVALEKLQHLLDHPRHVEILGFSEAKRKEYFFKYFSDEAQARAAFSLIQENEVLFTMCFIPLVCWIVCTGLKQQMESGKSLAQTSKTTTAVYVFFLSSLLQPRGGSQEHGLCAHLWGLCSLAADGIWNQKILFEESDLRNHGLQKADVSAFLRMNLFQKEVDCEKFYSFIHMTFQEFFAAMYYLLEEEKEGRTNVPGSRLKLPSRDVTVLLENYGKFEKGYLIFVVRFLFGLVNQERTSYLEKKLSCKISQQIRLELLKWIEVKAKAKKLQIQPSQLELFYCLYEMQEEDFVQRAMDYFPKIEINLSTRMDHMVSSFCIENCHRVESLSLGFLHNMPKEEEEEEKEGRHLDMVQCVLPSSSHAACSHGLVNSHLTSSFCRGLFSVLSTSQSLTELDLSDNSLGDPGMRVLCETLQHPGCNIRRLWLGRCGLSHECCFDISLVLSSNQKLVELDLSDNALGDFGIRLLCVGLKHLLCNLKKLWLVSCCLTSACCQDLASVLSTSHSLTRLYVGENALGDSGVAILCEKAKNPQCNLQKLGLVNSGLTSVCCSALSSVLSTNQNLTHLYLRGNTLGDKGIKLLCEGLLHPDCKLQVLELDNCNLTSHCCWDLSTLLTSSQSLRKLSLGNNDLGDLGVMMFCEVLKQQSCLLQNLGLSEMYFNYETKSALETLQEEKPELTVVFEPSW

For assay [2], the target named is T1, NLRP3. Briefly: Human whole blood IL-1β release assay (LPS + nigericin, AlphaLisa). In kind it is cell-based. Details: Plate out 80 μl of whole blood containing 1 μg/ml of LPS; from tissue; host or cells: human whole blood from healthy donors. Here is the method: For systemic delivery, the ability to inhibit NLRP3 when the compounds are present within the bloodstream is of great importance. For this reason, the NLRP3 inhibitory activity of a number of compounds in human whole blood was investigated in accordance with the following protocol.
Human whole blood in Li-heparin tubes was obtained from healthy donors from a volunteer donor panel. • 1. Plate out 80 μl of whole blood containing 1 μg/ml of LPS in 96-well, clear bottom cell culture plate (Corning #3585) • 2. Add 10 μl compound (8 points half-log dilution with 10 μM top dose) or vehicle (DMSO 0.1% FAC) to the appropriate wells • 3. Incubate for 3 hrs at 37° C., 5% CO2 • 4. Add 10 μl nigericin (Sigma #N7143) (10 μM FAC) to all wells • 5. Incubate for 1 hr at 37° C., 5% CO2 • 6. At the end of the incubation period, spin plates at 300×g for 5 mins to pellet cells and remove 20 μl of supernatant and add to 96-well v-bottom plates for IL-1β analysis (note: these plates containing the supernatants can be stored at −80° C. to be analysed at a later date) • 7. IL-1β was measured according to the manufacturer protocol (Perkin Elmer-AlphaLisa IL-1 Kit AL220F-5000) • 8. IC50 data is fitted to a non-linear regression equation (log inhibitor vs response-variable slope 4-parameters)
A general note: Alpha assays give light when donor and acceptor beads are brought close together.

[3] abbreviates: THP-1 cells, 1 μg/ml LPS, 5 μM nigericin, NLRP3 inhibitory activity, read-out: THP IC50.
The mark [4] stands for this setting: human whole blood, 1 μg/ml LPS, 10 μM nigericin, IL-1β release, read-out: HWB IC50.

Structures can show the parent of a compound that is named as a salt.

As for `O=C(Nc1c2c(cc3c1CCC3)CCC2)NS(=O)(=O)N1CC2CCC(C1)N2C1CC1` [Example 75, 8-Cyclopropyl-N-((1,2,3,5,6,7-hexahydro-s-indacen-4-yl)carbamoyl)-3,8-diazabicyclo[3.2.1]octane-3-sulfonamide, potassium salt], the values for the IC50 at NLRP3 [1] and at NLRP3 [2] were less than 500 nM and less than 5000 nM, respectively.

`CN1CCCC1CN(C)S(=O)(=O)NC(=O)Nc1c2c(cc3c1CCC3)CCC2` (stereo not shown) [Example 80, 3-(N-Methyl-N-((1-methylpyrrolidin-2-yl)methyl)sulfamoyl)-1-(1,2,3,5,6,7-hexahydro-s-indacen-4-yl)urea, potassium salt]: the IC50 on NLRP3 [1] (setting [3]) and on NLRP3 [2] (setting [4]) was less than 500 nM throughout.

Regarding `O=C(Nc1c2c(cc3c1CCC3)CCC2)NS(=O)(=O)N1CCC(N2CCC2)C1` (stereo not shown) [Example 73, 3-(Azetidin-1-yl)-N-((1,2,3,5,6,7-hexahydro-s-indacen-4-yl)carbamoyl)pyrrolidine-1-sulfonamide, potassium salt], the IC50 is less than 1000 nM on NLRP3 [1] (setting [3]) and less than 5000 nM at NLRP3 [2] (setting [4]).

Turning to `CN(C)C1CCN(S(=O)(=O)NC(=O)Nc2c3c(cc4c2CCC4)CCC3)C1` (stereo not shown) [Example 9, 3-(Dimethylamino)-N-((1,2,3,5,6,7-hexahydro-s-indacen-4-yl)carbamoyl)pyrrolidine-1-sulfonamide, potassium salt], the IC50 on NLRP3 [1] (setting [3]) and at NLRP3 [2] (setting [4]) was less than 500 nM each time.

Regarding `CCN1CC2CCC(C1)N2S(=O)(=O)NC(=O)Nc1c2c(cc3c1CCC3)CCC2` [Example 62, 3-Ethyl-N-((1,2,3,5,6,7-hexahydro-s-indacen-4-yl)carbamoyl)-3,8-diazabicyclo[3.2.1]octane-8-sulfonamide, potassium salt], the values for the IC50 on NLRP3 [1] (setting [3]) and on NLRP3 [2] (setting [4]) were less than 500 nM and less than 1000 nM, respectively.

Turning to `Cc1cc2c(c(NC(=O)NS(=O)(=O)N(C)C)c1-c1ccnc(OC3CCN(C)CC3)c1)CCC2` [Example 113, N-((6-Methyl-5-(2-((1-methylpiperidin-4-yl)oxy)pyridin-4-yl)-2,3-dihydro-1H-inden-4-yl)carbamoyl)N,N-dimethylsulfamide], the IC50 at NLRP3 [1] and on NLRP3 [2] was less than 500 nM in each case.

Take `CN1CCC(NS(=O)(=O)NC(=O)Nc2c3c(cc4c2CCC4)CCC3)C1` (stereo not shown) [Example 44, 3-(N-(1-Methylpyrrolidin-3-yl))sulfamoyl)-1-(1,2,3,5,6,7-hexahydro-s-indacen-4-yl)urea, potassium salt]: the concentration for half-maximal inhibition (IC50) on NLRP3 [1] (setting [3]) is less than 1000 nM; at NLRP3 [2] (setting [4]), less than 500 nM.

In the case of `CN1CC(NS(=O)(=O)NC(=O)Nc2c3c(cc4c2CCC4)CCC3)C1` [Example 34, 3-(N-(1-Methylazetidin-3-yl))sulfamoyl)-1-(1,2,3,5,6,7-hexahydro-s-indacen-4-yl)urea, potassium salt], the IC50 on NLRP3 [1] (setting [3]) and on NLRP3 [2] (setting [4]) was less than 500 nM each time.

`CN1CCC1CNS(=O)(=O)NC(=O)Nc1c2c(cc3c1CCC3)CCC2` (stereo not shown) [Example 31, 3-(N-((1-Methylazetidin-2-yl)methyl))sulfamoyl)-1-(1,2,3,5,6,7-hexahydro-s-indacen-4-yl)urea, potassium salt]: the IC50 on NLRP3 [1] (setting [3]) and at NLRP3 [2] (setting [4]) was less than 500 nM throughout.

Turning to `O=C(Nc1c2c(cc3c1CCC3)CCC2)NS(=O)(=O)N1CCC(N2CCCC2)C1` (stereo not shown) [Example 72, N-((1,2,3,5,6,7-Hexahydro-s-indacen-4-yl)carbamoyl)-[1,3′-bipyrrolidine]-1′-sulfonamide, potassium salt], the half-inhibitory concentration (IC50) at NLRP3 [1] (setting [3]) and on NLRP3 [2] (setting [4]) was less than 500 nM in each case.

As for `CN1CCCN(S(=O)(=O)NC(=O)Nc2c3c(cc4c2CCC4)CCC3)CC1` [Example 90, N-((1,2,3,5,6,7-Hexahydro-s-indacen-4-yl)carbamoyl)-4-methyl-1,4-diazepane-1-sulfonamide, potassium salt], the IC50 at NLRP3 [1] (setting [3]) is less than 1000 nM; on NLRP3 [2] (setting [4]), less than 500 nM.

Take `CC(C)N1CCC1CNS(=O)(=O)NC(=O)Nc1c2c(cc3c1CCC3)CCC2` (stereo not shown) [Example 50, 3-(N-((1-Isopropylazetidin-2-yl)methyl)sulfamoyl)-1-(1,2,3,5,6,7-hexahydro-s-indacen-4-yl)urea, potassium salt]: the half-inhibitory concentration (IC50) at NLRP3 [1] (setting [3]) and on NLRP3 [2] (setting [4]) was less than 500 nM throughout.

Turning to `COc1cc(-c2c(C)cc3c(c2NC(=O)NS(=O)(=O)N(C)C)CCC3)ccn1` [Example 114, N-((5-(2-Methoxypyridin-4-yl)-6-methyl-2,3-dihydro-1H-inden-4-yl)carbamoyl)(N,N-dimethylsulfamoyl)amide], the half-inhibitory concentration (IC50) at NLRP3 [1] (setting [3]) was less than 500 nM; on NLRP3 [2] (setting [4]), less than 1000 nM.

On to `CN1CCC[C@@H]1CN(C)S(=O)(=O)NC(=O)Nc1c2c(cc3c1CCC3)CCC2` [Example 95, 3-((R)—N-Methyl-N-((1-methylpyrrolidin-2-yl)methyl)sulfamoyl)-1-(1,2,3,5,6,7-hexahydro-s-indacen-4-yl)urea, potassium salt], for which the IC50 at NLRP3 [1] (setting [3]) and on NLRP3 [2] (setting [4]) was less than 500 nM in each case.

In the case of `C#CCCC1(CCNS(=O)(=O)NC(=O)Nc2c3c(cc4c2CCC4)CCC3)N=N1` [Example 45, 3-(N-(2-(3-(but-3-yn-1-yl)-3H-diazirin-3-yl)ethyl))sulfamoyl)-1-(1,2,3,5,6,7-hexahydro-s-indacen-4-yl)urea, potassium salt], the IC50 at NLRP3 [1] (setting [3]) is less than 500 nM; at NLRP3 [2] (setting [4]), less than 10000 nM.

For `O=C(Nc1c2c(cc3c1CCC3)CCC2)NS(=O)(=O)N1CC(N2CCC2)C1` [Example 46, N-((1,2,3,5,6,7-Hexahydro-s-indacen-4-yl)carbamoyl)-[1,3′-biazetidine]-1′-sulfonamide, potassium salt], the figures for the IC50 on NLRP3 [1] (setting [3]) and at NLRP3 [2] (setting [4]) were less than 1000 nM and less than 5000 nM, respectively.

Turning to `CN1CCC[C@@H]1CN(C)S(=O)(=O)NC(=O)Nc1c2c(cc3c1CCC3)C=CC2` [Example 112, (R)—(N-Methyl-N-((1-methylpyrrolidin-2-yl)methyl)sulfamoyl)((1,2,3,5-tetrahydro-s-indacen-4-yl)carbamoyl)amide, potassium salt], the values for the IC50 on NLRP3 [1] (setting [3]) and on NLRP3 [2] (setting [4]) were less than 1000 nM and less than 5000 nM, respectively.

As to `CC(C)N1CC2CCC(C1)N2S(=O)(=O)NC(=O)Nc1c2c(cc3c1CCC3)CCC2` [Example 38, N-((1,2,3,5,6,7-Hexahydro-s-indacen-4-yl)carbamoyl)-3-isopropyl-3,8-diazabicyclo[3.2.1]octane-8-sulfonamide, potassium salt], the IC50 on NLRP3 [1] (setting [3]) is less than 500 nM; at NLRP3 [2] (setting [4]) it was less than 1000 nM.

Take `CN1CC2(CCN2S(=O)(=O)NC(=O)Nc2c3c(cc4c2CCC4)CCC3)C1` [Example 91, N-((1,2,3,5,6,7-Hexahydro-s-indacen-4-yl)carbamoyl)-6-methyl-1,6-diazaspiro[3.3]heptane-1-sulfonamide, potassium salt]: the IC50 on NLRP3 [1] (setting [3]) is less than 1000 nM; at NLRP3 [2] (setting [4]), less than 5000 nM.

Regarding `CC(C)N1CC2CN(S(=O)(=O)NC(=O)Nc3c4c(cc5c3CCC5)CCC4)CC21` (stereo not shown) [Example 87, N-((1,2,3,5,6,7-Hexahydro-s-indacen-4-yl)carbamoyl)-6-isopropyl-3,6-diazabicyclo[3.2.0]heptane-3-sulfonamide, potassium salt], the values for the IC50 on NLRP3 [1] (setting [3]) and on NLRP3 [2] (setting [4]) were less than 500 nM and less than 5000 nM, respectively.

The IC50 is the point on the concentration scale where inhibition reaches its midpoint.

These data come from US12187702B2, “Sulfonamideurea compounds” (Inflazome Limited, priority 2018, dated 2025).
